Tested on: Rhizoctonia solani
Assay: Soybean seed treatment test in soil contaminated by Rhizoctonia solani (disease control efficacy)
Format: in vivo, Rhizoctonia solani on soybean (variety: Natto shoryu)
Conditions: carboxamide compound alone, 0.2 g/100 kg of seeds; soybean seed application; cultivated 20 days in soil contaminated by Rhizoctonia solani; efficacy vs non-treated plot
Procedure: A cyclohexanone solution (100microL) containing prescribed amount (weight) of a test compound was applied on seeds of soybean (variety : Natto shoryu) (10 g) by using a rotary apparatus for seed treatment (Seed dresser, manufactured by Hans-Ulrich Hege GmbH).
One day after the application, plastic pot was filled with soil contaminated by Rhizoctonia solani, and the seeds treated with the test compounds were seeded in the soil and cultivated in a glass-greenhouse for 20 days (hereinafter referred to as “treated plot”).
Thereafter, the presence of disease caused by Rhizoctonia solani in the young plants which germinated from each seed was observed and disease severity was calculated according to the following calculation formula (1).
On the other hand, seeds of soybean which were not treated as above were cultivated in the same way as above (hereinafter referred to as “non-treated plot”) and the disease severity in “non-treated plot” was calculated in the same way as the above “treated plot”. On the basis of the above severity of disease in “treated plot” and “non-treated plot”, efficacy in the “treated plot” was evaluated according to the following calculation formula (2).
Calculation formula (1): Disease severity (%)=(number of infected young plants/total number of young plants)×100 […]

| SMILES | efficacy (%) |
| --- | --- |
| Cc1nn(C)c(C)c1C(=O)Nc1cccc2c1C(C)CC2(C)C (centres unmarked) [carboxamide compound (5)] | 21.1% |
| CC1CC(C)(C)c2cccc(NC(=O)c3cn(C)nc3C(F)F)c21 (centres unmarked) [carboxamide compound (1)] | 42.1% |
